Laboratory results: PubChem BioAssay (NCI)
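Method: 48-hour compound exposure of cells in 96-well plates, five concentrations, linear interpolation of endpoints. TGI: concentration producing complete growth inhibition.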

How the values were obtained:
Assay in all cases: DTP human tumour cell line panel, 48 h
786-0 renal = system: 786-0 renal
A498 renal = system: A498 renal
A549 NSCLC = system: A549 NSCLC
ACHN renal = system: ACHN renal
COLO 205 colon = system: COLO 205 colon
HCT-116 colon = system: HCT-116 colon
HOP-92 NSCLC = system: HOP-92 NSCLC
HS 578T breast = system: HS 578T breast
IGROV1 ovarian = system: IGROV1 ovarian
LOX IMVI melanoma = system: LOX IMVI melanoma
M14 melanoma = system: M14 melanoma
MALME-3M melanoma = system: MALME-3M melanoma
MCF7 breast = system: MCF7 breast
MDA-MB-231 breast = system: MDA-MB-231 breast
MDA-MB-435 = system: MDA-MB-435
MDA-N = system: MDA-N
NCI-H226 lung = system: NCI-H226 lung
NCI-H23 lung = system: NCI-H23 lung
NCI-H460 lung = system: NCI-H460 lung
NCI-H522 lung = system: NCI-H522 lung
NCI/ADR-RES ovarian = system: NCI/ADR-RES ovarian
OVCAR-4 ovarian = system: OVCAR-4 ovarian
OVCAR-8 ovarian = system: OVCAR-8 ovarian
RPMI-8226 leukemia = system: RPMI-8226 leukemia
SF-268 CNS = system: SF-268 CNS
SF-295 CNS = system: SF-295 CNS
SK-MEL-28 melanoma = system: SK-MEL-28 melanoma
SK-MEL-5 melanoma = system: SK-MEL-5 melanoma
SK-OV-3 ovarian = system: SK-OV-3 ovarian
SN12C renal = system: SN12C renal
SNB-19 CNS = system: SNB-19 CNS
SNB-75 CNS = system: SNB-75 CNS
T-47D breast = system: T-47D breast
TK-10 renal = system: TK-10 renal
U251 CNS = system: U251 CNS
UACC-62 melanoma = system: UACC-62 melanoma
UO-31 renal = system: UO-31 renal
CAKI-1 renal = system: CAKI-1 renal
DU-145 prostate = system: DU-145 prostate
HOP-62 NSCLC = system: HOP-62 NSCLC
HT29 colon = system: HT29 colon
K-562 leukemia = system: K-562 leukemia
KM12 colon = system: KM12 colon
MOLT-4 leukemia = system: MOLT-4 leukemia
OVCAR-3 ovarian = system: OVCAR-3 ovarian
OVCAR-5 ovarian = system: OVCAR-5 ovarian
PC-3 prostate = system: PC-3 prostate
RXF 393 renal = system: RXF 393 renal
SF-539 CNS = system: SF-539 CNS
SK-MEL-2 melanoma = system: SK-MEL-2 melanoma
SW-620 colon = system: SW-620 colon

Measured: TGI

O=C1Cc2c([nH]c3ccc(Cl)cc23)-c2ccccc2N1
not listed: CAKI-1 renal | DU-145 prostate | HOP-62 NSCLC | HT29 colon | K-562 leukemia | KM12 colon | MOLT-4 leukemia | OVCAR-3 ovarian | OVCAR-5 ovarian | PC-3 prostate | RXF 393 renal | SF-539 CNS | SK-MEL-2 melanoma | SW-620 colon
> 100 µM: all other assays above

CNC(=O)CNC(=O)CCC(=O)OC
not listed: HOP-92 NSCLC | HS 578T breast | IGROV1 ovarian | LOX IMVI melanoma | MALME-3M melanoma | NCI-H226 lung | RPMI-8226 leukemia | SNB-75 CNS
> 100 µM: all other assays above
